In patent publication US20100068359A1, “PRESERVATIVE METHOD” (CONOPCO, INC., D/B/A UNILEVER, priority 2008, published 2010):

Tests used:
[1] = test system: Z. bailii
[2] = test system: APRY yeast; test: Challenge study in full fat mayonnaise model, APRY yeast; format: cell-based, Zygosaccharomyces bailii and/or Zygosaccharomyces rouxii
Description: • 1. […] Formula adjustments were made to keep aqueous acetic acid and sugar levels constant, i.e. % active/(% water+% active)×100, i.e., about 1.53% to about 1.54% aqueous acetic acid and about 6.32% to about 6.36% aqueous sugar. • 3. […] Analytical data supported that the per cent replacement targets were met, […] The results of the challenge study over a number of weeks were reported (see Challenge Data in the Tables 3, 4 and 5 below).

[3] = test system: APRY yeast; test: APRY yeast challenge in YM broth with equal molar salts; format: cell-based, Zygosaccharomyces bailii and/or Zygosaccharomyces rouxii
Procedure: • 1. The growth media of the Bidlas et al. reference was used (YM broth and stock pH (6.0). (Growth media—YMB, Sabourda, PDB • 2. Three salts (NaCl, KCl, NH4Cl) were added in a increasing level. […] The detailed salt amounts are shown in the Table 7 below. • 3. The target pH for all compositions was 5.5. • 4. The effects on APRY Yeast, instead of pathogens as in Bidlas et al. were studied. • 5. Inhibition was measured by CFUs (colony forming units) • 6. Dramatic increases in APRY yeast levels are observed after more than about two days.

For [Cl-].[Cl-].[Mg+2] [magnesium chloride], the Z. bailii outgrowth [1] was “enhance Z. bailii outgrowth”.

For [Ca+2].[Cl-].[Cl-] [calcium chloride], the Z. bailii outgrowth [1] was “enhance Z. bailii outgrowth”.

Cl.N [NH4Cl, ammonium chloride] was tested, and the “Observation: APRY outgrowth / stability” value [2] was “faster APRY die-off”, the “APRY yeast level in broth” value ([3]; 0.51 N salt, day 0) was 10,200 CFUs and the “APRY yeast level in broth” value ([3]; 0.51 N salt, day 1) was 260,000 CFUs. For the same molecule, the “APRY yeast level in broth” value ([3]; 0.51 N salt, day 1½) was 672,000 CFUs, the “APRY yeast level in broth” value ([3]; 0.51 N salt, day ½) was 11,700 CFUs and the “APRY yeast level in broth” value ([3]; 1.03 N salt, day 0) was 8,100 CFUs. The “APRY yeast level in broth” value ([3]; 1.03 N salt, day 1) was 32,000 CFUs, the “APRY yeast level in broth” value ([3]; 1.03 N salt, day 1½) was 14,000 CFUs and the “APRY yeast level in broth” value ([3]; 1.03 N salt, day 2) was 53,000 CFUs. The “APRY yeast level in broth” value ([3]; 1.03 N salt, day ½) was 6,000 CFUs, the “APRY yeast level in broth” value ([3]; 1.54 N salt, day 0) was 10,900 CFUs and the “APRY yeast level in broth” value ([3]; 1.54 N salt, day 1) was 3,100 CFUs. For the same molecule, the “APRY yeast level in broth” value ([3]; 1.54 N salt, day 1½) was 7,000 CFUs, the “APRY yeast level in broth” value ([3]; 1.54 N salt, day 2) was 39,500 CFUs and the “APRY yeast level in broth” value ([3]; 1.54 N salt, day 5) was 2,200 CFUs. The “APRY yeast level in broth” value ([3]; 1.54 N salt, day 6) was 3,000 CFUs, the “APRY yeast level in broth” value ([3]; 1.54 N salt, day 8) was 2,900 CFUs and the “APRY yeast level in broth” value ([3]; 1.54 N salt, day 11) was 4,600 CFUs. For the same molecule, the “APRY yeast level in broth” value ([3]; 1.54 N salt, day 13) was 40,000 CFUs, the “APRY yeast level in broth” value ([3]; 1.54 N salt, day 14) was 84,000 CFUs and the “APRY yeast level in broth” value ([3]; 1.54 N salt, day ½) was 7,200 CFUs. For the same molecule, the “APRY yeast level in broth” value ([3]; 2.05 N salt, day 0) was 8,900 CFUs, the “APRY yeast level in broth” value ([3]; 2.05 N salt, day 1) was 3,100 CFUs and the “APRY yeast level in broth” value ([3]; 2.05 N salt, day 1½) was 10,000 CFUs. The “APRY yeast level in broth” value ([3]; 2.05 N salt, day 2) was 36,100 CFUs, the “APRY yeast level in broth” value ([3]; 2.05 N salt, day 5) was 700 CFUs and the “APRY yeast level in broth” value ([3]; 2.05 N salt, day 6) was 700 CFUs. For the same molecule, the “APRY yeast level in broth” value ([3]; 2.05 N salt, day 8) was 1,600 CFUs, the “APRY yeast level in broth” value ([3]; 2.05 N salt, day 11) was 400 CFUs and the “APRY yeast level in broth” value ([3]; 2.05 N salt, day 13) was 600 CFUs. The “APRY yeast level in broth” value ([3]; 2.05 N salt, day 14) was 800 CFUs and the “APRY yeast level in broth” value ([3]; 2.05 N salt, day ½) was 5,800 CFUs.

With N.N.O=P(O)(O)O [DAP, di-ammonium hydrogen phosphate] the “APRY yeast level in broth” value ([3]; 0.51 N salt, day 0) was 17,600 CFUs, the “APRY yeast level in broth” value ([3]; 0.51 N salt, day 1) was 324,000 CFUs and the “APRY yeast level in broth” value ([3]; 0.51 N salt, day 1½) was 630,000 CFUs. The “APRY yeast level in broth” value ([3]; 0.51 N salt, day ½) was 8,100 CFUs, the “APRY yeast level in broth” value ([3]; 1.03 N salt, day 0) was 21,000 CFUs and the “APRY yeast level in broth” value ([3]; 1.03 N salt, day 1) was 10,200 CFUs. For the same molecule, the “APRY yeast level in broth” value ([3]; 1.03 N salt, day 1½) was 24,000 CFUs, the “APRY yeast level in broth” value ([3]; 1.03 N salt, day 2) was 250,000 CFUs and the “APRY yeast level in broth” value ([3]; 1.03 N salt, day ½) was 7,100 CFUs. For the same molecule, the “APRY yeast level in broth” value ([3]; 1.54 N salt, day 0) was 6,000 CFUs, the “APRY yeast level in broth” value ([3]; 1.54 N salt, day 1) was 10,300 CFUs and the “APRY yeast level in broth” value ([3]; 1.54 N salt, day 1½) was 2,000 CFUs. The “APRY yeast level in broth” value ([3]; 1.54 N salt, day 2) was 6,700 CFUs, the “APRY yeast level in broth” value ([3]; 1.54 N salt, day 5) was 120,900 CFUs and the “APRY yeast level in broth” value ([3]; 1.54 N salt, day 6) was 117,600 CFUs. For the same molecule, the “APRY yeast level in broth” value ([3]; 1.54 N salt, day 8) was 820,000 CFUs, the “APRY yeast level in broth” value ([3]; 1.54 N salt, day 11) was 570,000 CFUs and the “APRY yeast level in broth” value ([3]; 1.54 N salt, day 13) was 141,000 CFUs. The “APRY yeast level in broth” value ([3]; 1.54 N salt, day 14) was 280,000 CFUs, the “APRY yeast level in broth” value ([3]; 1.54 N salt, day ½) was 13,000 CFUs and the “APRY yeast level in broth” value ([3]; 2.05 N salt, day 0) was 10,000 CFUs. The “APRY yeast level in broth” value ([3]; 2.05 N salt, day 1) was 11,500 CFUs, the “APRY yeast level in broth” value ([3]; 2.05 N salt, day 1½) was 6,000 CFUs and the “APRY yeast level in broth” value ([3]; 2.05 N salt, day 2) was 7,100 CFUs. The “APRY yeast level in broth” value ([3]; 2.05 N salt, day 5) was 980 CFUs, the “APRY yeast level in broth” value ([3]; 2.05 N salt, day 6) was 5,000 CFUs and the “APRY yeast level in broth” value ([3]; 2.05 N salt, day 8) was 2,500 CFUs. The “APRY yeast level in broth” value ([3]; 2.05 N salt, day 11) was 4,000 CFUs, the “APRY yeast level in broth” value ([3]; 2.05 N salt, day 13) was 1,600 CFUs and the “APRY yeast level in broth” value ([3]; 2.05 N salt, day 14) was 3,000 CFUs. The “APRY yeast level in broth” value ([3]; 2.05 N salt, day ½) was 9,600 CFUs.

In the case of [Cl-].[Na+] [NaCl, sodium chloride], the “APRY yeast level in broth” value ([3]; 0.51 N salt, day 0) is reported as 13,100 CFUs, the “APRY yeast level in broth” value ([3]; 0.51 N salt, day 1) is reported as 440,000 CFUs and the “APRY yeast level in broth” value ([3]; 0.51 N salt, day ½) is reported as 4,300 CFUs. For the same molecule, the “APRY yeast level in broth” value ([3]; 1.03 N salt, day 0) was 10,000 CFUs, the “APRY yeast level in broth” value ([3]; 1.03 N salt, day 1) was 3,200 CFUs and the “APRY yeast level in broth” value ([3]; 1.03 N salt, day 1½) was 7,000 CFUs. For the same molecule, the “APRY yeast level in broth” value ([3]; 1.03 N salt, day 2) was 29,000 CFUs, the “APRY yeast level in broth” value ([3]; 1.03 N salt, day ½) was 6,900 CFUs and the “APRY yeast level in broth” value ([3]; 1.54 N salt, day 0) was 13,200 CFUs. For the same molecule, the “APRY yeast level in broth” value ([3]; 1.54 N salt, day 1) was 2,300 CFUs, the “APRY yeast level in broth” value ([3]; 1.54 N salt, day 1½) was 8,000 CFUs and the “APRY yeast level in broth” value ([3]; 1.54 N salt, day 2) was 3,900 CFUs. For the same molecule, the “APRY yeast level in broth” value ([3]; 1.54 N salt, day 5) was 2,740 CFUs, the “APRY yeast level in broth” value ([3]; 1.54 N salt, day 6) was 1,840 CFUs and the “APRY yeast level in broth” value ([3]; 1.54 N salt, day 8) was 3,600 CFUs. For the same molecule, the “APRY yeast level in broth” value ([3]; 1.54 N salt, day 11) was 3,300 CFUs, the “APRY yeast level in broth” value ([3]; 1.54 N salt, day 13) was 2,900 CFUs and the “APRY yeast level in broth” value ([3]; 1.54 N salt, day 14) was 3,500 CFUs. The “APRY yeast level in broth” value ([3]; 1.54 N salt, day ½) was 3,800 CFUs, the “APRY yeast level in broth” value ([3]; 2.05 N salt, day 0) was 9,800 CFUs and the “APRY yeast level in broth” value ([3]; 2.05 N salt, day 1) was 2,700 CFUs. The “APRY yeast level in broth” value ([3]; 2.05 N salt, day 1½) was 7,000 CFUs, the “APRY yeast level in broth” value ([3]; 2.05 N salt, day 2) was 4,500 CFUs and the “APRY yeast level in broth” value ([3]; 2.05 N salt, day 5) was 1,730 CFUs. For the same molecule, the “APRY yeast level in broth” value ([3]; 2.05 N salt, day 6) was 2,110 CFUs, the “APRY yeast level in broth” value ([3]; 2.05 N salt, day 8) was 1,600 CFUs and the “APRY yeast level in broth” value ([3]; 2.05 N salt, day 11) was 700 CFUs. The “APRY yeast level in broth” value ([3]; 2.05 N salt, day 13) was 700 CFUs, the “APRY yeast level in broth” value ([3]; 2.05 N salt, day 14) was 800 CFUs and the “APRY yeast level in broth” value ([3]; 2.05 N salt, day ½) was 5,100 CFUs.

In the case of [Cl-].[K+] [KCl, potassium chloride], the “APRY yeast level in broth” value ([3]; 0.51 N salt, day 0) is reported as 3,800 CFUs, the “APRY yeast level in broth” value ([3]; 0.51 N salt, day 1) is reported as 280,000 CFUs and the “APRY yeast level in broth” value ([3]; 0.51 N salt, day ½) is reported as 14,200 CFUs. For the same molecule, the “APRY yeast level in broth” value ([3]; 1.03 N salt, day 0) was 12,000 CFUs, the “APRY yeast level in broth” value ([3]; 1.03 N salt, day 1) was 78,000 CFUs and the “APRY yeast level in broth” value ([3]; 1.03 N salt, day 1½) was 772,000 CFUs. The “APRY yeast level in broth” value ([3]; 1.03 N salt, day ½) was 12,300 CFUs, the “APRY yeast level in broth” value ([3]; 1.54 N salt, day 0) was 13,800 CFUs and the “APRY yeast level in broth” value ([3]; 1.54 N salt, day 1) was 11,600 CFUs. For the same molecule, the “APRY yeast level in broth” value ([3]; 1.54 N salt, day 1½) was 85,000 CFUs, the “APRY yeast level in broth” value ([3]; 1.54 N salt, day ½) was 7,900 CFUs and the “APRY yeast level in broth” value ([3]; 2.05 N salt, day 0) was 7,300 CFUs. The “APRY yeast level in broth” value ([3]; 2.05 N salt, day 1) was 3,300 CFUs, the “APRY yeast level in broth” value ([3]; 2.05 N salt, day 1½) was 8,000 CFUs and the “APRY yeast level in broth” value ([3]; 2.05 N salt, day 2) was 68,000 CFUs. For the same molecule, the “APRY yeast level in broth” value ([3]; 2.05 N salt, day ½) was 7,900 CFUs and the “growth of APRY yeast in the broth system” value ([3]; YM broth, target pH 5.5) was “does not inhibit the growth of APRY yeast”.
